Compound Nc1ccc(Oc2ccc3sncc3c2)c(C(F)(F)F)c1 has a melting point of 136 °C.
Cc1cc(Oc2ccc(N)cc2C(F)(F)F)n[nH]1 showed a melting point of 143 to 145 °C.
In the case of Cc1cc(C(C)(C)C)c(O)c(N)c1N, the melting point is reported as 129 to 136 °C.
Compound Cc1nc(-c2ccccc2Cl)sc1-c1ccccc1 has a melting point of 63 to 65 °C.
Cc1onc(NS(=O)(=O)c2ccccc2-c2ccc(-c3ncco3)cc2CN(C)C(=O)CC(C)(C)C)c1C showed a melting point of 120 to 128 °C.
In the case of CCN(CC)C(=O)C(C)Oc1cc(-c2ccccc2)cc2ccccc12 (stereo not drawn), the melting point is reported as 109 °C.
Compound O=C(CCl)NCC(CNC(=O)CCl)OC1CCCCO1 (stereo not drawn) has a melting point of 100 °C.
Work on CCOC(=O)c1c(S(C)=O)n(C2CC2)c2cc(F)c(F)cc2c1=O (stereo not drawn) yielded a melting point of 207 °C.
Work on O=C(Nc1cccnc1)N1CCc2cc(Cl)c(Cl)cc21 yielded a melting point of 236 to 238 °C.
In the case of CC(C)OC(C)c1nnc(N)s1 (stereo not drawn), the melting point is reported as 129 to 135 °C.
COc1ccc(S(=O)(=O)c2c(-c3ccccc3)oc3ccccc23)cc1 showed a melting point of 146 to 148 °C.
With CC(C)n1nc(-c2sc(NC(=N)N)nc2-c2ccccc2)ccc1=O the melting point was > 250 °C.
Work on O=c1oc2ncccc2n1CCCBr yielded a melting point of 62 to 63 °C.
Work on CCCOCCOC(=O)C1=C(C)NC(C)=C(c2nc(CCl)no2)C1c1cccc([N+](=O)[O-])c1 (stereo not drawn) yielded a melting point of 129 to 130 °C.
CCc1cc2c(s1)-n1c(CCNC(=O)c3cc4ccccc4[nH]3)nnc1CN=C2c1ccccc1Cl gave a melting point of 174 to 178 °C.
O=C1c2ccccc2C(=O)c2c1cccc2N1CCNCC1 gave a melting point of 190 °C.
Compound O=C1Nc2cc(Cl)ccc2C(=O)C1c1coc2ccccc12 (stereo not drawn) has a melting point of 290 °C.
In the case of COc1cc(C)nc(-c2ccc(C)cc2)n1, the melting point is reported as 66 to 67 °C.
Compound Cc1cc(=O)c(OCc2ccccc2)c(C(=O)NC2CCC2)n1C has a melting point of 221 to 222 °C.
With O=C(COc1ccc(OCc2ccccc2)cc1)NCCCn1ccnc1 the melting point was 112 to 113 °C.
For C=CC(NC(C)=O)C(=O)NCc1ccccc1 (stereo not drawn), the melting point was 136 to 138 °C.
CCS(=O)(=O)c1cc2c(cc1OC)CCn1c3c(c(Br)c1-2)CCCCN(C(C)(C)C)C3=O showed a melting point of 227 °C.
In the case of COc1ccc(C(=O)Cc2ccccc2)c([N+](=O)[O-])c1O, the melting point is reported as 176 to 177 °C.
In the case of CC(C)c1nc2cc(COc3ccc(C=O)cc3)ccc2o1, the melting point is reported as 86 to 88 °C.
In the case of c1ccc(Cc2nc(C3CCCCC3)oc2CN2CCc3c([nH]c4ccccc34)C2)cc1, the melting point is reported as 200 to 201 °C.
For CC(CO[N+](=O)[O-])NC(=O)[C@@H]1CSC(=O)N1 (stereo partly drawn), the melting point was 112 to 114 °C.
With CN1C(=O)c2c(n3cncc3c3[nH]c4ncccc4c23)C1=O the melting point was 304 to 307 °C.
In the case of Cc1nc(N2CCN(CC(C)C)C2=O)sc1C(=O)NCc1ccn(C)n1, the melting point is reported as 158 to 161 °C.
CC1c2ccccc2CC(C)(O)Cc2ccccc21 (stereo not drawn) showed a melting point of 100 to 135 °C.
In the case of CCOC(=O)C(C)(C)Oc1ccc(CNc2ccc(Cl)cc2)cc1, the melting point is reported as 58 to 60 °C.
In the case of CC1(C)OC(=C(C#N)C#N)C(C#N)=C1/C=C/c1ccc(N)cc1, the melting point is reported as 360 °C.
For O=S(=O)(Nc1ccc(C(O)(C(F)(F)F)C(F)(F)F)cc1)c1ccccc1, the melting point was 117 to 118 °C.
COC(=O)CC(NCCN(C)C)C(=O)O (stereo not drawn) gave a melting point of 164 to 166 °C.
With Brc1ccc(OCc2ccccn2)cc1/C=C/c1cc(/C=C/c2ccc3cc[nH]c3c2)[nH]n1 the melting point was 100 to 106 °C.
COc1cccc(CSc2c(O)cc(-c3ccccc3)oc2=O)c1 gave a melting point of 134 to 136 °C.
Work on COC(=O)c1ccc(N=C2NCCN2)c(C)c1 yielded a melting point of 193 to 194 °C.
Nc1cccc(-c2cccnc2)n1 gave a melting point of 108 °C.
Work on c1ccc(C(Oc2ccncc2)c2ccccc2)cc1 yielded a melting point of 68 to 70 °C.
In the case of CSc1ccc(NC(C#N)c2ccc(OC(F)F)cc2)cc1 (stereo not drawn), the melting point is reported as 98 to 99 °C.
O=[N+]([O-])c1c(O)c(Cl)cc(F)c1-c1ncc(C(F)(F)F)cc1Cl gave a melting point of 67 to 72 °C.
For CCC(=O)C(Cc1c(F)cccc1F)C(=O)CC, the melting point was 55 to 56 °C.
Compound CC(C(=O)NCCN(C)C)n1cc(-c2ccc(Oc3ccccc3)cc2)c2c(N)ncnc21 (stereo not drawn) has a melting point of 163 to 164 °C.
OCc1cc(N(c2ccccc2)c2ccccc2)c(CO)cc1N(c1ccccc1)c1ccccc1 gave a melting point of 208 to 210 °C.
O=C1CCC2=C1C(c1ccc(Br)cc1)C1=C(CCS1)N2 (stereo not drawn) showed a melting point of 253 to 256 °C.
In the case of O[C@@H](CCOc1cccc2ccccc12)c1ccccc1, the melting point is reported as 76 to 78 °C.
In the case of CSCCC(NCc1ccccc1N)C(=O)O (stereo not drawn), the melting point is reported as 198 °C.
CC(c1ccccc1)N1C(=O)NC(=O)C1O (stereo not drawn) showed a melting point of 139 to 140 °C.
CC(=Cc1ccccc1)c1ncccc1C(N)=O showed a melting point of 150 to 155 °C.
For CP(C)(=O)OCc1ccccc1, the melting point was 41 to 45 °C.
CS(=O)(=O)Nc1cccc(Nc2nc(OCC3CCCCC3)c3nc[nH]c3n2)c1 gave a melting point of 169 to 172 °C.
Work on C#CCOc1ccc(-c2nc3ccccc3o2)cc1 yielded a melting point of 124 to 127 °C.
With N#Cc1cccc2c1N(Cc1ccc(Cl)s1)C(=O)C21COc2cc3c(cc21)OCO3 (stereo not drawn) the melting point was 192 to 193 °C.
In the case of Cc1noc(NC(=O)N2CCN(c3nccc(-c4ccccc4F)n3)CC2)c1C, the melting point is reported as 194 to 195 °C.
Work on CC(=O)Nc1nc(C)c(S(=O)(=O)NC(C)(CO)CO)s1 yielded a melting point of 201 °C.
In the case of CCCC(=O)c1ccc(OCCN2CCN(c3cc(Cl)nnc3Cl)CC2)cc1, the melting point is reported as 140 to 141 °C.
Work on NS(=O)(=O)c1c(Cl)nc2n1CCS2(=O)=O yielded a melting point of 246 to 247 °C.
In the case of C=CCc1cc(Cc2cnc(N)nc2N)c2ccc(C)nc2c1O, the melting point is reported as 236 to 237 °C.
Cc1n[nH]c(=O)cc1-c1ccc(OC2CCN(C(=O)OC(C)(C)C)CC2)cc1 showed a melting point of 184 to 186 °C.
COc1ccc2c(c1)c1c3c(c(-c4ccccc4)cc1n2CCCCCCO)C(=O)NC3=O showed a melting point of 170 to 173 °C.
For C#CC1(O)c2ccccc2COc2ccccc21 (stereo not drawn), the melting point was 93 to 94 °C.
CC(C)C(N)C(O)COc1ccccc1C1=NNC(=O)CC1 (stereo not drawn) showed a melting point of 124 to 126 °C.
For COc1ccc2c(=O)nc(-c3ccccn3)sc2c1, the melting point was 200 to 202 °C.
Compound O=C1CCC(c2ccc(-c3ccc(F)cc3)o2)O1 (stereo not drawn) has a melting point of 57 to 59 °C.
In the case of O=C(O)c1ccc(C(=O)/C=C/c2cc(-c3cccs3)ccc2N2CCCC2)cc1, the melting point is reported as 208 to 209 °C.
Work on Cc1c(C(=O)Nc2ccc(N3CCC(NCCO)CC3)c(C#N)c2)cnn1-c1ccc(C(F)(F)F)cc1 yielded a melting point of 202 °C.
N=C(NOC(=O)c1ccccc1)c1ccc(NC(=O)CCCC(=O)Nc2ccc(C(=N)NOC(=O)c3ccccc3)cc2)cc1 gave a melting point of 253 to 255 °C.
For CS(=O)(=O)c1cc(Br)nc(Br)c1, the melting point was 137 to 138 °C.
For Cn1c(=O)oc2cc(CCCN3CCOCC3)cnc21, the melting point was < 80 °C.
With CCN(C(=O)Cc1ccc(S(C)(=O)=O)cc1)C1CCN(C(=O)OC(C)(C)C)CC1 the melting point was 138 to 140 °C.
With COc1cc2c(c3c1OC(C)(C)C3)C(c1cccc(-c3cncnc3)c1)=NC(C)(C)C2 the melting point was 141 to 143 °C.
With COc1ccc(C2CCN(c3c(C)c(C)c4c(c3C)C(O)(c3ccsc3)C(C)(C)O4)CC2)cc1OC (stereo not drawn) the melting point was 125 to 128 °C.
O=c1ccc(-c2ccc(-n3ccnc3)nc2)n[nH]1 gave a melting point of 261 to 263 °C.
With Fc1ccc(OC(CCN2CCN(c3ccccc3)CC2)c2ccccc2)cc1 (stereo not drawn) the melting point was 80 to 82 °C.
With O=C(COc1ccc(Cl)cc1)N1CCc2occc2C1CN1CCC(O)C1 (stereo not drawn) the melting point was 43 to 45 °C.
With CN(C)CCCOc1ccc(C[C@H](NC(=O)[C@@H]2CCCN2S(=O)(=O)c2cc(Cl)sc2Cl)C(=O)O)cc1 the melting point was > 200 °C.
Work on Cc1cc(C(=O)N2CCN(c3c(C#N)c(=O)n(Cc4ccc(F)cc4)c4ccccc34)CC2)no1 yielded a melting point of 123 to 135 °C.
Compound CC(=O)SCCC1C(=O)N2CCCC(C(=O)OC(C)(C)C)N2C1=O (stereo not drawn) has a melting point of 86 to 88 °C.
In the case of COC(C)c1ccc(O)cc1 (single isomer, unassigned; (+)), the melting point is reported as 114 to 115 °C.
O=C(Cl)N1CCC(Oc2cccc3c2CCC3)C1 (stereo not drawn) showed a melting point of 128 to 129 °C.
O=C(Nc1ccc(-c2ncc(-c3ccc(NC(=O)C4CCCCCC4)cc3)[nH]2)cc1)c1ccc(Cl)c(Cl)c1 gave a melting point of 304 to 306 °C.
With COc1nsc(SCOCC#CI)c1C#N the melting point was 124 to 125 °C.
Work on NS(=O)(=O)Oc1cccc(Cl)c1 yielded a melting point of 82 to 83 °C.
CC(C)(C)c1cccc(S(=O)(=O)n2c(Cc3ccc(C(=O)O)cc3)cc3c(Cl)c(Cl)ccc32)c1 gave a melting point of 216 °C.
Compound COC(=O)NCC1Cc2cc(Cl)c3ccccc3c2O1 (stereo not drawn) has a melting point of 128 to 130 °C.
CN1CC(CCCl)Oc2ccccc2C1=S (stereo not drawn) gave a melting point of 105 to 108 °C.
In the case of CNC(=O)Cn1c(-c2ccc(Cl)cc2)nc2ccc(Cl)nc21, the melting point is reported as > 250 °C.
In the case of CCOC(=O)c1ccc2cc(Cl)ccn2c1=O, the melting point is reported as 161 to 164 °C.
With COC(=O)C=C1C[N+]([O-])=C(c2ccccc2)c2cc(Cl)ccc2N1 the melting point was 215 to 216 °C.
In the case of COc1nnc(Cl)c(-c2c(F)cc(F)cc2F)c1-c1ccc(Br)cc1, the melting point is reported as 113 to 119 °C.
With CCCOc1ccc(S(=O)(=O)C(C)C)cc1-c1nc2c(CC)nn(C[C@@H]3CCCN3C(=O)OC(C)(C)C)c2c(=O)[nH]1 the melting point was 141 to 143 °C.
For COc1cc(/C=C/S(=O)(=O)CS(=O)(=O)/C=C/c2cc(OC)c(OC)c(OC)c2)cc(OC)c1OC, the melting point was 127 to 129 °C.
For O=C1N(C(c2ccccc2)c2ccccc2)c2ccccc2C12COc1ccc(F)cc12 (stereo not drawn), the melting point was 182 to 184 °C.
In the case of CCCC(=O)C1=C(O)CC(c2c(C)c(C)c(C)c3c2OC(C)C3C)CC1=O (stereo not drawn), the melting point is reported as 119 to 120 °C.
For CC1(C)CCC(C)(C)c2cc(N)ccc21, the melting point was 63 to 65 °C.
With O=C1NC(=O)c2cc(CCCCOc3ccccc3)ccc21 the melting point was 102 to 103 °C.
Compound ClCCCC1(c2ccccc2)OCCO1 has a melting point of 54 to 55.5 °C.
Compound CCCCn1c(COc2ccccc2)nc2c(N)nc3ccccc3c21 has a melting point of 172 to 173 °C.
With O=c1c2cc3ccccc3cc2oc2cc(OCC3CO3)cc(O)c12 (stereo not drawn) the melting point was 201 to 202 °C.
ClCc1ccc(OCCC(c2ccccc2)(c2ccccc2)c2ccccc2)cc1 showed a melting point of 91 to 95 °C.
Work on O=C1NCCN1OCc1ccccc1 yielded a melting point of 64 to 65 °C.
In the case of CC(Cc1cccnc1)NC(=O)[C@@H]1C[C@H](C)CC[C@H]1C(C)C (stereo partly drawn), the melting point is reported as 108 to 110 °C.
With COC(=O)C1=C(C)NC(C)=C(C(=O)OC)C1CCCCC(=O)O the melting point was 150 to 151 °C.
Work on COC(=O)C1=C(C)NC(CC(=O)N2CCN(C3CC4CCC(C3)N4Cc3ccccc3OC)CC2)=C(C(=O)OC)C1c1c(Cl)cccc1Cl (stereo not drawn) yielded a melting point of 205 to 213 °C.

Reference: a melting point compilation (Tetko et al.; mined from patent text by program, amines drawn as free bases though some values may be those of a salt)
